The source of these data is patent publication EP4782453A1 (Beyang Therapeutics Co., Ltd., priority 2023, dated 2025).

For one assay, the target named is T1, Menin-MLL (Homo sapiens, UniProt O00255).
T1 construct: His-Menin (M1-L615 end); purchased BIORTUS BP9210
T1 sequence (O00255 1-615 isoform O00255-1): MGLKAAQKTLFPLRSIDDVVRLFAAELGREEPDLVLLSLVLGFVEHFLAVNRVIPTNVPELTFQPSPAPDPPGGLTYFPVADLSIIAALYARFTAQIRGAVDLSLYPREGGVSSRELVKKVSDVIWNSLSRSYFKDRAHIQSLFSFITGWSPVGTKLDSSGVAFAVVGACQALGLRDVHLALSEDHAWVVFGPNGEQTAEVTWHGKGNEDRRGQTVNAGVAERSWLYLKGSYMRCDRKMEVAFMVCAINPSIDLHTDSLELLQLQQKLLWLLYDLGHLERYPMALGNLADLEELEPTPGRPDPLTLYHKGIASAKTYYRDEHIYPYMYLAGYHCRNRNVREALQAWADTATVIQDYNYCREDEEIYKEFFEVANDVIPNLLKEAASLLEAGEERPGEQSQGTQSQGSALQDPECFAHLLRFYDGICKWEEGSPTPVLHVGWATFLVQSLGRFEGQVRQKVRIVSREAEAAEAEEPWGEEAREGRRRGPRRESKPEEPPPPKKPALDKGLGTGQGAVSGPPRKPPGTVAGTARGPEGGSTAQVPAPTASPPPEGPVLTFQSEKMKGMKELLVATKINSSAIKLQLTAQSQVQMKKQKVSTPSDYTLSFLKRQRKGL
Kind of assay: Inhibitory activity against Menin-MLL binding (fluorescence polarization). Conditions: Menin-MLL IC50, fluorescence polarization; 150 nM His-Menin, 15 nM FITC-MLL; 25°C for 60 min. A digest of the protocol: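 Fluorescence polarization competition: compound and 150 nM His-tagged menin (residues M1-L615) sit 15 min at 25 °C in pH 7.5 HEPES buffer with NaCl, DTT and BSA; 15 nM FITC-labelled MLL peptide then binds for 60 min. IC50 fitted sigmoidally from mP values, duplicate wells.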
As for `CCS(=O)(=O)N[C@H]1CC[C@H](CN2CC(c3cc(-c4ccc(F)cc4C(=O)N4CCOC[C@H]4C)c4cnn(C)c4c3)C2)CC1` [Example 159, N-[(1r,4r)-4-{[3-(4-{4-fluoro-2-[(3R)-3-methylmorpholin-4-carbonyl]phenyl}-1-methyl-1H-indazol-6-yl)azacyclobutan-1-yl]methyl}cyclohexyl]ethan-1-sulfonamide], the IC50 (in general, the concentration that gives 50% inhibition) was 69 nM.

In the case of `CCS(=O)(=O)N[C@H]1CC[C@H](CC(C)N2CC(c3cc(-c4ccc(F)cc4C(=O)N4CCOC[C@H]4C)c4cnn(C)c4c3)C2)CC1` (stereo partly drawn) [Example 175, N-[(1r,4r)-4-{2-[3-(4-{4-fluoro-2-[(3R)-3-methylmorpholin-4-carbonyl]phenyl}-1-methyl-1H-indazol-6-yl)azacyclobutan-1-yl]propyl}cyclohexyl]ethan-1-sulfonamide], the IC50 is 138 nM. `CCN(C(=O)c1cc(F)ccc1-c1cc(C2(F)CCN(C[C@]3(O)CC[C@@H](NS(=O)(=O)CC)CC3)C2)cc2c1cnn2C)C(C)C` (stereo partly shown) [Compound 68, N-ethyl-5-fluoro-2-[6-(3-fluoro-1-{[(1s,4s)-4-ethanesulfonamido-1-hydroxylcyclohexyl]methyl}pyrrolidin-3-yl)-1-methyl-1H-indazol-4-yl]-N-(isopropyl)benzamide] displayed an IC50 of 298 nM. Take `CCN(C(=O)c1cc(F)ccc1-c1cc(C2CCN(C[C@H]3CC[C@H](NS(=O)(=O)CC)CC3)C2)cn2cncc12)C(C)C` (mixture of isomers) [Example 22, N-ethyl-5-fluoro-N-isopropyl-2-[6-(1-{[(1r,4r)-4-ethanesulfonamidocyclohexyl]methyl}pyrrolidin-3-yl)imidazo[1,5-a]pyridin-8-yl]benzamide]: the IC50 is 25 nM. Consider `CCS(=O)(=O)N[C@H]1CC[C@H](CN2CCCC(c3cc(-c4ccc(F)cc4C(=O)N(CC(F)F)C(C)C)c4cnn(C)c4c3)C2)CC1` (stereo partly shown) [Example 170, N-(2,2-difluoroethyl)-5-fluoro-2-[1-methyl-6-(1-{[(1r,4r)-4-ethanesulfonamidocyclohexyl]methyl}piperidin-3-yl)-1H-indazol-4-yl]-N-(isopropyl)benzamide], for which the IC50 was 60 nM.

With `CCN(C(=O)c1cc(F)ccc1-c1cc(C2(F)CCN(C[C@H]3CC[C@H](NS(=O)(=O)CC)CC3)C2)cc2c1cnn2C)C(C)C` (stereo partly shown) [Compound 61, N-ethyl-5-fluoro-2-[6-(3-fluoro-1-{[(1r,4r)-4-ethanesulfonamidocyclohexyl]methyl}pyrrolidin-3-yl)-1-methyl-1H-indazol-4-yl]-N-(isopropyl)benzamide], the IC50 was determined as 58 nM. As for `CCN(C(=O)c1cc(F)ccc1-c1cc(C2CN(C(=O)[C@@H]3CCCCN3)C2)cn2c(C)nc(Cl)c12)C(C)C` [Example 126], the IC50 came to 19 nM.

The same assay, now with this note: fluorescence polarization; 150 nM His-Menin, 15 nM FITC-MLL; 25°C for 60 min; read-out: Menin-MLL IC50.
Regarding `CCN(C(=O)c1cc(F)ccc1-c1cc(N2CCN(CCc3ccc(-c4cc(OC)c(OC)nn4)cc3)CC2)cn2c(C)ncc12)C(C)C` [Compound 70, 2-[6-(4-{2-[4-(5,6-dimethoxypyridazin-3-yl)phenyl]ethyl}piperazin-1-yl)-3-methylimidazo[1,5-a]pyridin-8-yl]-N-ethyl-5-fluoro-N-(isopropyl)benzamide], the IC50 amounted to 93 nM. On to `CCOC(=O)N1CCC(CN2CC(c3cc(-c4ccc(F)cc4C(=O)N4CCOC[C@H]4C)c4c(F)nc(C)n4c3)C2)CC1` [Example 270], for which the IC50 was found to be 24 nM. Turning to `CCS(=O)(=O)N[C@@H]1CC[C@@H](CN2CCC(c3cc(-c4ccc(F)cc4C(=O)N(CC(F)F)C(C)C)c4cnc(C)n4c3)C2)OC1` (stereo partly drawn) [Example 163, N-(2,2-difluoroethyl)-2-[6-(1-{[(2S,5R)-5-ethanesulfonamidooxacyclohexan-2-yl]methyl}pyrrolidin-3-yl)-3-methylimidazo[1,5-a]pyridin-8-yl]-5-fluoro-N-(isopropyl)benzamide], the IC50 amounted to 38 nM.

As for `CCN(C(=O)c1cc(F)ccc1-c1cc(C2CN([C@H](CCCN3CCN(C4CC4)CC3)C(C)C)C2)cn2c(C)ncc12)C(C)C` [Example 376], the IC50 came out at 3.1 nM.

For the compound `Cc1nc(F)c2c(-c3ccc(F)cc3C(=O)N3CCOC[C@H]3C)cc(C3CN([C@@H](C)C4CCN(C(=O)C(F)F)CC4)C3)cn12` [Example 300], the IC50 stood at 24 nM.

For `CC(=O)N1CCC([C@@H](C)N2CC(c3cc(-c4ccc(F)cc4C(=O)N4CCOC[C@H]4C)c4c(F)nc(C)n4c3)C2)CC1` [Example 257-1, 1-{4-[(1R)-1-[3-(1-fluoro-8-{4-fluoro-2-[(3R)-3-methylmorpholin-4-carbonyl]phenyl}-3-methylimidazo[1,5-a]pyridin-6-yl)azacyclobutan-1-yl]ethyl]piperidin-1-yl}ethan-1-one], the IC50 came to 131 nM. As to `CCN(C(=O)c1cc(F)ccc1-c1cc(C2CN([C@@H](CC[C@@H]3COCCN3)C(C)C)C2)cn2c(C)ncc12)C(C)C` [Example 449-2, N-ethyl-5-fluoro-2-(3-methyl-6-{1-[(3S)-4-methyl-1-[(3R)-morpholin-3-yl]pentan-3-yl]azacyclobutan-3-yl}imidazo[1,5-a]pyridin-8-yl)-N-(isopropyl)benzamide], the IC50 came out at 34 nM. On the same count and under the same terms, next, `CCN(C(=O)c1cc(F)ccc1-c1cc(C2CN([C@H](CCCN3CCN(C(C)=O)CC3)C(C)C)C2)cc2c1cnn2C)C(C)C` [Example 407]: 33 nM. As to `CCN(C(=O)c1cc(F)ccc1-c1cc(C2CN([C@H](CCCN3CCNC(=O)C3)C(C)C)C2)cn2c(C)ncc12)C(C)C` [Example 494], the IC50 worked out at 4.1 nM. Same read-out and setting: next, `Cc1nc(F)c2c(-c3ccc(F)cc3C(=O)N3CCOC[C@H]3C)cc(C3CN([C@@H](CO[C@@H]4CCCN(C)C4)C(C)C)C3)cn12` [Example 297-2, (3R)-4-[5-fluoro-2-(1-fluoro-3-methyl-6-{1-[(2R)-3-methyl-1-{[(3R)-1-methylpiperidin-3-yl]oxy}butan-2-yl]azacyclobutan-3-yl}imidazo[1,5-a]pyridin-8yl)benzoyl]-3-methylmorpholine]: 13.5 nM. Regarding `CNC(=O)N1CCC([C@@H](C)N2CC(c3cc(-c4ccc(F)cc4C(=O)N4CCOC[C@H]4C)c4c(F)nc(C)n4c3)C2)CC1` [Example 264-1], the IC50 amounted to 116 nM. Same read-out and setting: the value for `COCCN(C)CCC[C@@H](C(C)C)N1CC(c2cc(-c3ccc(F)cc3C(=O)N3CCOC[C@H]3C)c3c(F)nc(C)n3c2)C1` [Example 200-2] was 75 nM; that for `CCN(C(=O)c1cc(F)ccc1-c1cc(N2CCN(C(=O)[C@@H]3CCCNC3)CC2)cn2c(C)ncc12)C(C)C` [Example 124] was 80.5 nM. As to `CCN(C(=O)c1cc(F)ccc1-c1cc(N2CCN(C(=O)[C@@H]3CCCN3)CC2)cn2c(C)ncc12)C(C)C` [Example 92], the IC50 came out at 46.5 nM. Regarding `Cc1nc(F)c2c(-c3ccc(F)cc3C(=O)N3CCOC[C@H]3C)cc(C3CN([C@@H](CCCN4CCOCC4)C(C)C)C3)cn12` [Example 199-2, (3R)-4-[5-fluoro-2-(1-fluoro-3-methyl-6-{1-[(3S)-2-methyl-6-(morpholin-4-yl)hexan-3-yl]azacyclobutan-3-yl}imidazo[1,5-a]pyridin-8-yl)benzoyl]-3-methylmorpholine], the IC50 amounted to 205 nM.

`COCCN(C)CCCC(C(C)C)N1CC(c2cc(-c3ccc(F)cc3C(=O)N(CC(F)F)C(C)C)c3cnn(C)c3c2)C1` (stereo not shown) [Example 180]: the IC50 came to 22 nM. On to `CCN(C(=O)c1cc(F)ccc1-c1cc(N2CCC(NCC3(F)CCC(NS(=O)(=O)CC)CC3)CC2)cn2c(C)ncc12)C(C)C` (stereo not shown) [Compound 57, 2-[6-(4-{[(4-ethanesulfonamido-1-fluorocyclohexyl)methyl]amino}piperidin-1-yl)-3-methylimidazo[1,5-a]pyridin-8-yl]-N-ethyl-5-fluoro-N-(isopropyl)benzamide], for which the half-maximal inhibitory concentration (IC50) stood at 107 nM. With `CCN(C(=O)c1cc(F)ccc1-c1cc(N2CCN(C(=O)C3NCCC3c3ccccc3)CC2)cn2c(C)nc(Cl)c12)C(C)C` (stereo not shown) [Example 127], the IC50 was 73.5 nM. Consider `CCN(C(=O)c1cc(F)ccc1-c1cc(C2CN([C@@H](CCCN(C)CCOC)C(C)C)C2)cn2c(C)nc(F)c12)C(C)C` [Example 307-1, N-ethyl-5-fluoro-2-(1-fluoro-6-{1-[(3S)-6-[(2-methoxyethyl)(methyl)amino]-2-methylhexan-3-yl]azacyclobutan-3-yl}-3-methylimidazo[1,5-a]pyridin-8-yl)-N-(isopropyl)benzamide], for which the IC50 amounted to 14.5 nM.

Consider `CCN(C(=O)c1cc(F)ccc1-c1cc(C2CN([C@H](CCCN3CCN[C@@H](CF)C3)C(C)C)C2)cn2c(C)ncc12)C(C)C` [Example 500], for which the IC50 came out at 2.2 nM. As for `CCN(C(=O)c1cc(F)ccc1-c1cc(C2CN([C@H](CCCN3CCN(C(=O)OC(C)(C)C)CC3)C(C)C)C2)cn2c(C)ncc12)C(C)C` [Example 454-1, 4-[(4R)-4-[3-(8-{2-[ethyl(isopropyl)aminoformyl]-4-fluorophenyl}-3-methylimidazo[1,5-a]pyridin-6-yl)azacyclobutan-1-yl]-5-methylhexyl]piperazin-1-tert-butyl carboxylate], the IC50 was 7.7 nM.
